Assay results taken from patent US20160084820A1, “METHODS OF TREATING OR PREVENTING PERIODONTITIS AND DISEASES ASSOCIATED WITH PERIODONTITIS” (priority 2010, published 2016).
Read-outs that look alike come from different tables or passages of the source.

What was measured:
[1] = test system: phagocytosed P. gingivalis in mouse peritoneal macrophages; type: cell-based, P. gingivalis ATCC 33277
Procedure: The viability of phagocytosed P. gingivalis was monitored by an antibiotic protection-based intracellular survival assay, as previously described (Wang et al., 2007, J. Immunol., 179:2349-58). Briefly, mouse peritoneal macrophages were allowed to phagocytose P. gingivalis (MOI=10:1; 5×10^6 bacteria and 5×10^5 cells) for […] at 37° C. This was followed by washing to remove extracellular nonadherent bacteria and 1-hour treatment with antibiotics (300 μg/ml gentamicin and 200 μg/ml metronidazole) to eliminate residual or extracellular adherent bacteria. The macrophages were subsequently cultured overnight (for a total of 24 hours) or for 48 hours Immediately after, the macrophages were washed and lysed in sterile distilled water, and viable counts of internalized P. gingivalis were determined by plating serial dilutions of macrophage lysates on blood agar plates subjected to anaerobic culture.
The viability of phagocytosed P. gingivalis was monitored by an antibiotic protection-based intracellular survival assay, as previously described (Wang et al., 2007, J. Immunol., 179:2349-58)). Briefly, mouse peritoneal macrophages were allowed to phagocytose P. gingivalis (at a MOI=10:1; 5×10^6 bacteria and 5×10^5 macrophages) for 30 min at 37° C. This was followed by washing to remove extracellular nonadherent bacteria and 1-hour treatment with antibiotics (300 μg/ml gentamicin and 200 μg/ml metronidazole) to eliminate residual or extracellular adherent bacteria. The macrophages were subsequently cultured overnight for a total of 24 hours Immediately after, the macrophages were washed and lysed in sterile distilled water and viable counts of internalized P. gingivalis were determined by plating serial dilutions of macrophage lysates on blood agar plates subjected to anaerobic culture.

[2] = test system: intracellular cAMP; assay: cAMP enzyme immunoassay in P. gingivalis-stimulated macrophages; type: cell-based, mouse; settings: C5aRA 1 μM; thapsigargin 1 μM; EGTA 5 mM; pertussis toxin 100 ng/ml; AMD3100 1 μg/ml; C5a 50 nM; 1 hour
[3] = test system: nitric oxide production; assay: NO2− (nitric oxide) production, Griess reaction-based assay, macrophages; type: cell-based, mouse; settings: 24 hours; for reversal of the inhibitory C5a effect on nitric oxide: SQ22536 200 μM, H89 5 μM, chelerythrin 5 μM, PKI 6-22 1 μM, KT5823 1 μM, C5a 50 nM
[4] = test system: IL-12p70 production; assay: IL-12p70 induction in IFN-gamma-primed macrophages, ELISA; type: cell-based, mouse
Procedure: Induction of nitric oxide production was assessed by measuring the amount of NO2− (stable metabolite of nitric oxide) in stimulated culture supernatants using a Griess reaction-based assay kit (R&D Systems), as previously performed (Hajishengallis et al., 2008, PNAS USA, 105:13532-7). Levels of cAMP in activated cell extracts were measured using a cAMP enzyme immunoassay kit (Cayman Chemical) (Liang et al., 2007, J. Immunol., 178:4811-9). C5a-induced intracellular calcium mobilization was monitored in cells (4×10^6) loaded with 1 μM Indo 1-AM in the presence of 1 μM pluronic acid, as previously described (Ali et al., 1993, J. Biol. Chem., 268:24247-54). Calcium traces were recorded in a Perkin-Elmer fluorescence spectrometer (Model 650-19) with an excitation wavelength of 355 nm and an emission wavelength of 405 nm. Induction of cytokine production in activated cell culture supernatants or in the peritoneal fluid of infected mice was determined by ELISA using kits from eBioscience or Cell Sciences. C5a levels were measured by sandwich ELISA, employing a pair of capture and biotinylated anti-05a mAbs (BD Pharmingen), according to the manufacturer's protocol.
Whether C5a inhibits P. gingivalis-induced IL-12p70 in peritoneal macrophages was investigated. Since macrophages are generally poor producers of IL-12p70 in vitro unless primed with IFN-gamma, macrophages used in these experiments were primed with IFN-gamma (0.1 μg/ml). […] The host TLR response against P. gingivalis is predominantly mediated by TLR2, both in vitro and in vivo. Therefore, whether C5a-mediated inhibition of P. gingivalis-induced IL-12p70 could involve a C5aR-TLR2 crosstalk additionally was examined.

[5] = test system: iNOS expression; assay: iNOS expression, quantitative real-time PCR, macrophages; type: cell-based, mouse; settings: SB216763 10 μM; 8-Br-cAMP 100 μM; 4 hours
Procedure: Gene expression in resting or activated mouse macrophages was quantified using quantitative real-time PCR. Briefly, RNA was extracted from cell lysates using the PerfectPure RNA cell kit (5 Prime, Fisher) and quantified by spectrometry at 260 and 280 nm. The RNA was reverse-transcribed using the High-Capacity cDNA Archive kit (Applied Biosystems) and quantitative real-time PCR with cDNA was performed using the ABI 7500 Fast System, according to the manufacturer's protocol (Applied Biosystems). TaqMan probes, sense primers, and antisense primers for expression of a house-keeping gene (GAPDH) or iNOS (or the genes shown in FIG. 7) were purchased from Applied Biosystems.

[6] = test system: GSK3β Ser9-phosphorylation; assay: GSK3β Ser9 phosphorylation ELISA in macrophages; type: cell-based, mouse; settings: PKI-6-22 1 μM; PD98059 25 μM
Procedure: PKA activity in lysates of activated cells was determined using the ProFluor™ PKA assay, according to the instructions of the manufacturer (Promega) (Hajishengallis et al., 2008, PNAS USA, 105:13532-7). Phosphorylation of GSK313 on Ser9 and total GSK3β were monitored using FACE™ GSK3β ELISA kits (Active Motif).

Compound: COC(=O)[C@@H](N)CCCNC(=N)N[N+](=O)[O-] [L-NAME, N(G)-nitro-L-arginine methyl ester]
- effect on C5a-protected P. gingivalis intracellular viability ([1]; pretreatment 1 μM C5aRA and/or 1 mM L-NAME or D-NAME, Pg with C5a 50 nM, 24 hours): mimicked C5a and overrode the C5aRA effect

Compound: c1cc(CN2CCCNCCNCCCNCC2)ccc1CN1CCCNCCNCCCNCC1 [AMD3100]
- effect on the synergistic C5a effect on P. gingivalis-induced cAMP [2]: modestly attenuated

Compound: O=S(=O)(NCCNC/C=C/c1ccc(Br)cc1)c1cccc2cnccc12 [H89]
- reversal of the inhibitory C5a effect on nitric oxide [3]: reversed

Compound: NC(N)=NCCC[C@H](NC(=O)COCC(c1ccccc1)c1ccccc1)C(=O)O [SB290157]
- reversal of the inhibitory effect of C5a^desArg on IL-12p70 [4]: did not influence

Compound: Cn1cc(C2=C(c3ccc(Cl)cc3Cl)C(=O)NC2=O)c2ccccc21 [SB216763]
- P. gingivalis-induced nitric oxide production ([3]; SB216763 10 μM, 8-Br-cAMP 100 μM): mimicked the inhibitory C5a effect
- P. gingivalis-induced iNOS expression [5]: mimicked the inhibitory C5a effect

Compound: Nc1ncnc2c1ncn2C1CCCO1 (centres unmarked) [SQ22536]
- reversal of the inhibitory C5a effect on nitric oxide [3]: reversed

Compound: COC(=O)[C@H](N)CCCN=C(N)N[N+](=O)[O-] [D-NAME, N(G)-nitro-D-arginine methyl ester]
- effect on C5a-protected P. gingivalis intracellular viability [1]: had no effect

Compound: COc1cccc(-c2cc(=O)c3ccccc3o2)c1N [PD98059]
- effect on synergistic C5a + P. gingivalis Ser9-phosphorylation of GSK3β [6]: not

Compound: O=C(O)CN(CCOCCOCCN(CC(=O)O)CC(=O)O)CC(=O)O [EGTA]
- effect on the synergistic C5a effect on P. gingivalis-induced cAMP [2]: relatively minimal and statistically insignificant effect

Compound: PKI 6-22: peptide inhibitor of PKA
- reversal of the inhibitory C5a effect on nitric oxide [3]: reversed
- effect on synergistic C5a + P. gingivalis Ser9-phosphorylation of GSK3β [6]: inhibited

Compound: pertussis toxin
- effect on the synergistic C5a effect on P. gingivalis-induced cAMP [2]: Significant reversal

Compound: C/C=C(/C)C(=O)O[C@H]1C(C)=C2[C@H]([C@@H]1OC(=O)CCCCCCC)[C@@](C)(OC(C)=O)C[C@H](OC(=O)CCC)[C@@]1(O)[C@H]2OC(=O)[C@@]1(C)O [thapsigargin]
- effect on the synergistic C5a effect on P. gingivalis-induced cAMP [2]: abrogated

Compound: N#CC(=C(/N)Sc1ccccc1N)/C(C#N)=C(\N)Sc1ccccc1N [U0126]
- LPS-induced IL-12p70 without C5a [4]: appeared to up-regulate
- P. gingivalis-induced IL-12p70 without exogenous C5a ([4]; C5aRA 1 μM, U0126 10 μM, wortmannin 100 nM): appeared to up-regulate
- reversal of C5a inhibition of P. gingivalis- or LPS-induced IL-12p70 ([4]; C5aRA 1 μM, U0126 10 μM, wortmannin 100 nM, C5a 50 nM): abrogated
